The target in one assay is FGFR4 (Homo sapiens, UniProt P22455). Briefly: FGFR4 Caliper Assay (in vitro biochemical kinase analysis of FGFR4). The note with it: read-out: Enzymatic activity FGFR4 IC50. How it is done:
I. In Vitro Biochemical Kinase Analysis of FGFR4
FGFR4 Caliper Assay was used in the present invention to determine the inhibitory activities of the compounds against FGFR4. The detailed experimental procedure was as follows.
2. A reaction system is a mixture solution of 50 mM HEPES, pH 7.5, 1 mM DTT, 0.02% Tween 20, 0.02% BSA, 0.6% DMSO, 10 mM beta glycerol phosphate and 10 μM sodium orthovanadate and 16 mM MgCl2.
3. The reaction system was incubated at 30° C. for 40 minutes.
4. The reaction was terminated by adding a stop solution (100 mM HEPES, pH 7.5, 5% DMSO, 0.1% Caliper coating reagent, 10 mM EDTA and 0.015% Brij35).
5. The culture plate with the terminated kinase reaction was transferred to the Caliper LC 3000 workstation to read the data, the phosphorylated and unphosphorylated peptides were separated by using the Caliper microfluid migration shift technique, and the analyte was transferred by allowing a constant buffer flow through the chip, the migration of the substrate peptide was monitored by the labeled fluorescent signal, and the kinase activity was calculated by using the amount of the phosphate-based peptide formed.
6. Finally, IC50 values were determined by non-linear regression analysis of percent inhibition at different compound concentrations.

The test system of assay [1] is Huh7 hepatocellular carcinoma cells. Briefly: FGFR4 cell proliferation experiment, Cell Titer Glo (CTG). Type of assay: cell-based. The note with it: Homo sapiens, Huh-7, 72 h, HuH-7 cells, 3 days; for IC50: concentration leading to absolute half growth inhibition; for EC50: concentration leading to half maximal growth inhibition. As for the experimental part: II. FGFR4 Cell Proliferation Experiment
Cell Titer Glo (CTG) experiment was used in the present invention to evaluate the functional effects of the compounds on cell proliferation. […] Compound-mediated inhibition of cell proliferation/survival was assessed by quantification of cellular ATP levels using CTG reagent (Promega, #G7573). The specific experimental procedure was as follows:
2. 10 μL of medium containing a compound concentration of 10 fold of its final test concentration was added;
3. The dose effect was evaluated by a 5-fold serial dilution of the test compound, starting from 10 μM.
4. After cells incubation for 3 days at 37° C. under 5% CO2, the effect of the inhibitor on cell proliferation was quantified after adding 50 μL of CTG and testing with luminescence.
Background: Cellular ATP, detected with luciferase, serves as a proxy for viable cell number.

The structures appear in SMILES notation.

The term IC50 denotes the concentration at which inhibition is half-maximal. Broadly, the EC50 is the concentration giving half of the maximal effect.

Chain of FGFR4 (P22455 22-802): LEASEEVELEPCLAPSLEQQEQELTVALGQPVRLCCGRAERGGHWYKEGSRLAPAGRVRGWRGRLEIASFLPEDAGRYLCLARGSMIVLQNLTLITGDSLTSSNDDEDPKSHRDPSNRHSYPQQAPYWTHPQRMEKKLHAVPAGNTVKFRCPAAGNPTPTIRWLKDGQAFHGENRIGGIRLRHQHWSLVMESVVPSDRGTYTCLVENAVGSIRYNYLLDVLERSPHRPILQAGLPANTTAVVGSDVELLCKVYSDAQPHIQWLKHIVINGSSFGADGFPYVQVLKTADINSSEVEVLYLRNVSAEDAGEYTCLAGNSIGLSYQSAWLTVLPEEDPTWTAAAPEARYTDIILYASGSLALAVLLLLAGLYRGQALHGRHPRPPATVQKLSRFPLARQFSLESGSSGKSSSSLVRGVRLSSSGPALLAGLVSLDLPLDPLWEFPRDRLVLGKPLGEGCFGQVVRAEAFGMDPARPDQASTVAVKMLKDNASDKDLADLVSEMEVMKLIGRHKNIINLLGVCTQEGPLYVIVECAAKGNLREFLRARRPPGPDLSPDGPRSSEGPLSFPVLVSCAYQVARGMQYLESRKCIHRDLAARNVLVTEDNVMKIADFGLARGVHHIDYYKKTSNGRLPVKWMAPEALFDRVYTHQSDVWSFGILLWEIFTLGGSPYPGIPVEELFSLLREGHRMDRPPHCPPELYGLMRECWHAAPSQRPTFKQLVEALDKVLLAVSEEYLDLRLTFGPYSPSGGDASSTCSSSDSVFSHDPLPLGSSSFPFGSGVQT

As to `C=CC(=O)Nc1cc(N2CCN(C)CC2)cc(C)c1Nc1cc2c(=O)n(C)c(-c3c(Cl)c(OC)cc(OC)c3Cl)nc2cn1` [Example 75, N-(2-((2-(2,6-dichloro-3,5-dimethoxyphenyl)-3-methyl-4-oxo-3,4-dihydropyrido [3,4-d]pyrimidin-6-yl)amino)-3-methyl-5-(4-methyl-piperazin-1-yl)phenyl) acrylamide], on FGFR4, the half-maximal inhibitory concentration (IC50) was 247 nM. In assay [1], this molecule returned an IC50 greater than 10000 nM and an EC50 greater than 10000 nM.
Take `C=CC(=O)Nc1cn(C)nc1Nc1ncc2cc(-c3c(Cl)c(OC)cc(OC)c3Cl)nc(NCC3CC3)c2n1` [Example 76, N-(3-((8-((cyclopropylmethyl)amino)-6-(2,6-dichloro-3,5-dimethoxyphenyl)pyrido[3,4-d]pyrimidin-2-yl)amino)-1-methyl-1H-pyrazol-4-yl)acrylamide]: the concentration for half-maximal inhibition (IC50) at FGFR4 was 24 nM; in assay [1], 62.6 nM. For the same molecule, in assay [1], the half-maximal effective concentration (EC50) was determined as 23.8 nM.
The like results for `C=CC(=O)N[C@H]1CCOC[C@H]1Nc1ncc2cc(-c3c(Cl)c(OC)cc(OC)c3Cl)ncc2n1` [Example 119, N-((3S,4S)-3-((6-(2,6-dichloro-3,5-dimethoxyphenyl)pyrido[3,4-d]pyrimidin-2-yl)amino)tetrahydro-2H-pyran-4-yl)acrylamide] were, in that order, 166 nM, 457 nM and 78.1 nM.
For the molecule `C=CC(=O)N[C@H]1COC[C@H]1Nc1ncc2cc(-c3c(F)c(OC)cc(OC)c3F)ncc2n1` [Example 120, N-((3R,4S)-4-((6-(2,6-difluoro-3,5-dime-thoxyphenyl)pyrido[3,4-d]pyrimidin-2-yl)amino)tetrahydrofuran-3-yl)acrylamide], on FGFR4, the IC50 was found to be 303 nM. In assay [1], this molecule gave an IC50 of 754 nM and a half-maximal effective concentration (EC50) of 156 nM.
For the molecule `C=CC(=O)N[C@H]1COC[C@H]1Nc1ncc2cc(-c3cc(OC)cc(OC)c3Cl)ncc2n1` [Example 121, N-((3R,4S)-4-((6-(2-chloro-3,5-dime-thoxyphenyl)pyrido[3,4-d]pyrimidin-2-yl)amino)tetrahydrofuran-3-yl)acrylamide], the 50% inhibitory concentration (IC50) is 183 nM on FGFR4 and 401 nM in assay [1]. In assay [1], this molecule displayed a 50% effective concentration (EC50) of 172 nM.
For `C=CC(=O)N[C@H]1COC[C@H]1Nc1cc2cnc(-c3c(Cl)c(OC)cc(OC)c3Cl)cc2cn1` [Example 124, N-((3R,4S)-4-((7-(2,6-dichloro-3,5-dime-thoxyphenyl)-2,6-naphthyridin-3-yl)amino)tetrahydrofuran-3-yl)acrylamide], the IC50 at FGFR4 is 61.6 nM. In assay [1], this molecule returned an IC50 of 556 nM and an EC50 of 303 nM.
In the same order, the values of `C=CC(=O)N[C@H]1COC[C@H]1Nc1cc2c(NCC3CC3)nc(-c3c(Cl)c(OC)cc(OC)c3Cl)cc2cn1` [Example 126, N-((3R,4S)-4-((5-((cyclopropylmethyl)amino)-7-(2,6-dichloro-3,5-dimethoxy-phenyl)-2,6-naphthyridin-3-yl)amino)tetrahydrofuran-3-yl)acrylamide] are 22 nM, 53.7 nM and 31.5 nM.
In the same order, the values of `C=CC(=O)N[C@H]1COC[C@H]1Nc1ncc2cc(-c3c(Cl)c(OC)cc(OC)c3Cl)nc(NCC3CC3)c2n1` [Example 421, N-((3R,4S)-4-((8-((cyclopropylmethyl)amino)-6-(2,6-dichloro-3,5-dimethoxyphenyl)pyrido[3,4-d]pyrimidin-2-yl)amino)tetrahydrofuran-3-yl)acrylamide] are 12.4 nM, 10 nM and 5.4 nM.
The like results for `C=CC(=O)N[C@H]1COC[C@H]1Nc1ncc2cc(-c3c(Cl)c(OC)cc(OC)c3Cl)nc(NCCOC)c2n1` [Example 422, N-((3R,4S)-4-((6-(2,6-dichloro-3,5-di-methoxyphenyl)-8-((2-methoxyethyl)amino)pyrido[3,4-d]pyrimidin-2-yl)a-mino)tetrahydrofuran-3-yl)acrylamide] were, in that order, 22.5 nM, 238 nM and 47 nM.
For the molecule `C=CC(=O)N[C@H]1COC[C@H]1Nc1ncc2cc(-c3c(Cl)c(OC)cc(OC)c3Cl)nc(OC)c2n1` [Example 423, N-((3R,4S)-4-((6-(2,6-dichloro-3,5-di-methoxyphenyl)-8-methoxypyrido[3,4-d]pyrimidin-2-yl)amino)tetrahydro-furan-3-yl)acrylamide], the half-inhibitory concentration (IC50) at FGFR4 worked out at 31.7 nM. In assay [1], this molecule showed an IC50 of 348 nM and a concentration giving a half-maximal response (EC50) of 98 nM.
In the same order, the values of `C=CC(=O)N[C@H]1COC[C@H]1Nc1ncc2cc(-c3c(F)c(OC)cc(OC)c3F)nc(NCC3CC3)c2n1` [Example 424, N-((3R,4S)-4-((8-((cyclopropylmeth-yl)amino)-6-(2,6-difluoro-3,5-dimeth-oxyphenyl)pyrido[3,4-d]pyrimidin-2-yl)amino)tetrahydrofuran-3-yl)acryl-amide] are 11 nM, 37.2 nM and 18.5 nM.
The like results for `C=CC(=O)N[C@H]1COC[C@H]1Nc1ncc2cc(-c3c(Cl)c(OC)cc(OC)c3Cl)nc(NCCS(=O)(=O)CC)c2n1` [Example 429, N-((3R,4S)-4-((6-(2,6-dichloro-3,5-di-methoxyphenyl)-8-((2-(ethylsulfonyl)ethyl)amino)pyrido[3,4-d]pyrimidin-2-yl)amino)tetrahydrofuran-3-yl)acryl-amide] were, in that order, 22.4 nM, 184 nM and 63.2 nM.
The like results for `C=CC(=O)N[C@H]1COC[C@H]1Nc1ncc2cc(-c3c(Cl)c(OC)cc(OC)c3Cl)nc(NCCNS(C)(=O)=O)c2n1` [Example 430, N-((3R,4S)-4-((6-(2,6-dichloro-3,5-dimethoxyphenyl)-8-((2-(methyl-sulfonamido)ethyl)a-mino)pyrido[3,4-d]pyri-midin-2-yl)amino)tetrahydrofuran-3-yl)acrylamide] were, in that order, 19.1 nM, 93.5 nM and 32 nM.
Regarding `C=CC(=O)N[C@H]1COC[C@H]1Nc1ncc2cc(-c3c(Cl)c(OC)cc(OC)c3Cl)nc(NCCCN(C)C)c2n1` [Example 432, N-((3R,4S)-4-((6-(2,6-dichloro-3,5-di-methoxyphenyl)-8-((3-(dimethylami-no)propyl)amino)pyrido[3,4-d]pyrimi-din-2-yl)amino)tetrahydrofuran-3-yl) acrylamide], the IC50 at FGFR4 came out at 106 nM. In assay [1], the half-inhibitory concentration (IC50) turned out to be 934 nM and the EC50 is 396 nM.
Turning to `C=CC(=O)N[C@H]1COC[C@H]1Nc1ncc2cc(-c3c(Cl)c(OC)cc(OC)c3Cl)nc(NC)c2n1` [Example 433, N-((3R,4S)-4-((6-(2,6-dichloro-3,5-dimethoxyphenyl)-8-(methylamino)pyrido[3,4-d]pyrimidin-2-yl)amino)tetrahydrofuran-3-yl)acrylamide], the IC50 on FGFR4 was 7.6 nM. Further, in assay [1], the IC50 was found to be 26.1 nM and the half-maximal effective concentration (EC50) was 19.3 nM.
Turning to `C=CC(=O)N[C@H]1COC[C@H]1Nc1ncc2cc(-c3c(Cl)c(OC)cc(OC)c3Cl)nc(NCC)c2n1` [Example 434], the IC50 on FGFR4 was determined as 8.4 nM. In assay [1], this molecule registered a half-maximal inhibitory concentration (IC50) of 18.2 nM and an EC50 of 9.6 nM.
In the same order, the values of `C=CC(=O)N[C@H]1COC[C@H]1Nc1ncc2cc(-c3c(Cl)c(OC)cc(OC)c3Cl)nc(NCC(F)(F)F)c2n1` [Example 435, N-((3R,4S)-4-((6-(2,6-dichloro-3,5-di-methoxyphenyl)-8-((2,2,2-trifluoroeth-yl)amino)pyrido[3,4-d]pyrimidin-2-yl)amino)tetrahydrofuran-3-yl)acryl-amide] are 67 nM, 148 nM and 80 nM.
In the same order, the values of `C=CC(=O)N[C@H]1COC[C@H]1Nc1ncc2cc(-c3c(Cl)c(OC)cc(OC)c3Cl)nc(NC[C@H]3CCCO3)c2n1` [Example 438A, N-((3R,4S)-4-((6-(2,6-dichloro-3,5-di-methoxyphenyl)-8-((((R)-tetrahydro-furan-2-yl)methyl)amino)pyrido[3,4-d]pyrimidin-2-yl)amino)tetrahydro-furan-3-yl)acrylamide] are 3.5 nM, 17.8 nM and 9.9 nM.
In the same order, the values of `C=CC(=O)N[C@H]1COC[C@H]1Nc1ncc2cc(-c3c(Cl)c(OC)cc(OC)c3Cl)nc(NC[C@@H]3CCCO3)c2n1` [Example 438B, N-((3R,4S)-4-((6-(2,6-dichloro-3,5-di-methoxyphenyl)-8-((((S)-tetrahydro-furan-2-yl)methyl)amino)pyrido[3,4-d]pyrimidin-2-yl)amino)tetrahydro-furan-3-yl)acrylamide] are 9.1 nM, 35.1 nM and 15.8 nM.

The record behind these values is patent US11555036B2, “FGFR4 inhibitor, preparation method therefor and pharmaceutical use thereof” (Abbisko Therapeutics Co., Ltd., priority 2016, dated 2023).
